Marks after values point to notes of the source that are not given here.
Legend:
leukemic cells of L-1210 = test: Effect on the life span of mice implanted with leukemic cells of L-1210 (method B); assay type: in vivo; settings: for ILS (%): Increase in Life Span; for 60-day survivors: mice survived for 60 days/mice used
Method: (B) Effect on the life span of mice implanted with leukemic cells of L-1210:
10^5 leukemic cells of L-1210were inoculated intraperitoneally into a group of four male mice (BDF1 mice, body weight: 19-23 g). A test compound was dissolved in a physiological saline solution and administered intraperitoneally to the mice. The administration of the test compound was begun 24 hours after the inoculation of the leukemic cells and performed once a day for 5 days. The survival days of the treated mice were observed.

[1] = Preventive effect against the growth of Ehrlich ascites tumor (method A); assay type: in vivo, mice; settings: mouse, in vivo, ip; Maximum Tolerated Dose: maximum dose with 100% inhibition of Ehrlich ascites tumor growth without death of mice; dose column in mg/kg/day
Method: (§1) (A) Preventive effect against the growth of Ehrlich ascites tumor:
(§2) 10^6 tumor cells of Ehrlich ascites carcinoma were inoculated intraperitoneally into a group of five female mice (ICR mice, body weight: 19-23 g). A test compound was dissolved in a physiological saline solution. (In the case where CCNU was employed as the test compound, said compound was suspended in a physiological saline solution containing 0.1% NIKKOL HCO-60 (trademark; a surface active agent manufactured by Nikko Chemicals Co. Ltd.)) and administered intraperitoneally to the mice. The administration of the test compound was begun 24 hours after the inoculation of the tumor cells and performed once a day for 5 days. The volume of ascites in the treated mice were measured after 7 days of the experiment.

[2] = test system: Ehrlich ascites carcinoma; test: as above; assay type: in vivo, mice; settings: for Therapeutic index: M. T. D./M. E. D.; for inhibition in vivo at 0.097 mg/kg/day: dose 0.097 mg/kg/day i.p. x 5 days; for inhibition in vivo at 0.195 mg/kg/day: dose 0.195 mg/kg/day i.p. x 5 days; for inhibition in vivo at 0.39 mg/kg/day: dose 0.39 mg/kg/day i.p. x 5 days; for inhibition in vivo at 1.56 mg/kg/day: dose 1.56 mg/kg/day i.p. x 5 days; for inhibition in vivo at 6.25 mg/kg/day: dose 6.25 mg/kg/day i.p. x 5 days; for minimal effective dose: minimum effective dose which shows 100% inhibition for the growth of the ascites tumor, dose column in mg/kg/day, read-out: MED; for Toxic: group of five mice; for inhibition in vivo at 0.78 mg/kg/day: dose 0.78 mg/kg/day i.p. x 5 days
Method: as §1, §2

[3] = dose 1.56 mg/kg/day i.p. x 5 days
[4] = dose 3.12 mg/kg/day i.p. x 5 days
[5] = dose 6.25 mg/kg/day i.p. x 5 days
[6] = dose 12.5 mg/kg/day i.p. x 5 days
[7] = T (treated mice), dose 6.25 mg/kg/day i.p. x 5 days
[8] = T (treated mice), dose 12.5 mg/kg/day i.p. x 5 days
[9] = Mus musculus, Ehrlich, ip, 168 h, read-out: Inhibition ratio (%)
[10] = Mus musculus, Ehrlich, ip, 168 h, dose 25 mg/kg/day i.p. x 5 days, read-out: Inhibition ratio (%)
[11] = Mus musculus, Ehrlich, ip, 168 h
[12] = dose 50 mg/kg/day i.p. x 5 days
[13] = dose 25 mg/kg/day i.p. x 5 days

CO[C@H]1O[C@H](CO)[C@@H](O)[C@H](N(C)C(=O)N(CCCl)N=O)[C@H]1O [Compound 3, 1 - (2 - chloroethyl) - 1 - nitroso - 3 - methyl - 3 - (methyl 3 - deoxy - a - D - glucopyranosid - 3 - yl)urea]
ILS (%) (leukemic cells of L-1210; [3]): 70.2%
ILS (%) (leukemic cells of L-1210; [4]): >361.9%
ILS (%) (leukemic cells of L-1210; [5]): >614.3%
ILS (%) (leukemic cells of L-1210; [6]): >614.3%
Mean survival days (T/C) (leukemic cells of L-1210; T (treated mice), dose 1.56 mg/kg/day i.p. x 5 days): 14.3/8.4 days
Mean survival days (T/C) (leukemic cells of L-1210; T (treated mice), dose 3.12 mg/kg/day i.p. x 5 days): >38.8/8.4 days
Mean survival days (T/C) (leukemic cells of L-1210; [7]): >60.0/8.4 days
Mean survival days (T/C) (leukemic cells of L-1210; [8]): >60.0/8.4 days
increase in the average life span (leukemic cells of L-1210; daily dose of 0.26 mg/kg intraperitoneally for five consecutive days): about 30%
60-day survivors (leukemic cells of L-1210; [3]): 0/4
60-day survivors (leukemic cells of L-1210; [4]): 2/4
60-day survivors (leukemic cells of L-1210; [5]): 4/4
60-day survivors (leukemic cells of L-1210; [6]): 4/4
MTD at 168 h [1]: 25 mg/kg/day
Therapeutic index [2]: 64
inhibition in vivo at 0.097 mg/kg/day [2, 9]: 2.7%
inhibition in vivo at 0.195 mg/kg/day [2, 9]: 81.1%
inhibition in vivo at 0.39 mg/kg/day [2, 9]: 100%
inhibition in vivo at 1.56 mg/kg/day [2, 9]: 100%
inhibition in vivo at 6.25 mg/kg/day [2, 9]: 100%
inhibition in vivo at 25 mg/kg/day [2, 10]: 100%
minimal effective dose [2, 11]: 0.39 mg/kg/day
Toxic [2, 12]: Toxic (1/5)*

C=CCN(C(=O)N(CCCl)N=O)[C@@H]1[C@@H](O)[C@@H](OC)O[C@H](CO)[C@H]1O [Compound 4, 1 - (2 - chloroethyl) -1 - nitroso - 3 - allyl - 3 - (methyl 3 - deoxy - α - D - glucopyranosid - 3 - yl)urea]
ILS (%) (leukemic cells of L-1210; [5]): 80.2%
ILS (%) (leukemic cells of L-1210; [6]): >597.7%
ILS (%) (leukemic cells of L-1210; [13]): >496.5%
Mean survival days (T/C) (leukemic cells of L-1210; [7]): 15.5/8.6 days
Mean survival days (T/C) (leukemic cells of L-1210; [8]): >60.0/8.6 days
Mean survival days (T/C) (leukemic cells of L-1210; T (treated mice; figure after the slash is untreated control C), dose 25 mg/kg/day i.p. x 5 days): >51.3/8.6 days
60-day survivors (leukemic cells of L-1210; [5]): 0/4
60-day survivors (leukemic cells of L-1210; [6]): 4/4
60-day survivors (leukemic cells of L-1210; [13]): 3/4
MTD at 168 h [1]: 25 mg/kg/day
Therapeutic index [2]: 128
inhibition in vivo at 0.097 mg/kg/day [2, 9]: 29.7%
inhibition in vivo at 0.195 mg/kg/day [2, 9]: 100%
inhibition in vivo at 0.39 mg/kg/day [2, 9]: 100%
inhibition in vivo at 1.56 mg/kg/day [2, 9]: 100%
inhibition in vivo at 6.25 mg/kg/day [2, 9]: 100%
inhibition in vivo at 25 mg/kg/day [2, 10]: 100%
minimal effective dose [2, 11]: 0.195 mg/kg/day
Toxic [2, 12]: Toxic (3/5)*

C#CCN(C(=O)N(CCCl)N=O)[C@@H]1[C@@H](O)[C@@H](OC)O[C@H](CO)[C@H]1O [Compound 5, 1 - (2 - chloroethyl) - 1 - nitroso - 3 - propargyl - 3 - (methyl 3 - deoxy - a - D - glucopyranosid - 3 - yl)urea]
MTD at 168 h [1]: 25 mg/kg/day
Therapeutic index [2]: 32
inhibition in vivo at 0.39 mg/kg/day [2, 9]: 35.1%
inhibition in vivo at 0.78 mg/kg/day [2, 9]: 100%
inhibition in vivo at 1.56 mg/kg/day [2, 9]: 100%
inhibition in vivo at 6.25 mg/kg/day [2, 9]: 100%
inhibition in vivo at 25 mg/kg/day [2, 10]: 100%
minimal effective dose [2, 11]: 0.78 mg/kg/day
Toxic [2, 12]: Toxic (1/5)*

COCCN(C(=O)N(CCCl)N=O)[C@@H]1[C@@H](O)[C@@H](OC)O[C@H](CO)[C@H]1O [Compound 6, 1 - (2 - chloroethyl) - 1 - nitroso - 3 - (2 - methoxyethyl) - 3 - (methyl 3 - deoxy - a - D - glucopyranosid - 3 - yl)urea]
MTD at 168 h [1]: 25 mg/kg/day
Therapeutic index [2]: 128
inhibition in vivo at 0.097 mg/kg/day [2, 9]: 0%
inhibition in vivo at 0.195 mg/kg/day [2, 9]: 100%
inhibition in vivo at 0.39 mg/kg/day [2, 9]: 100%
inhibition in vivo at 1.56 mg/kg/day [2, 9]: 100%
inhibition in vivo at 6.25 mg/kg/day [2, 9]: 100%
inhibition in vivo at 25 mg/kg/day [2, 10]: 100%
minimal effective dose [2, 11]: 0.195 mg/kg/day
Toxic [2, 12]: Toxic (2/5)*

O=NN(CCCl)C(=O)N[C@@H]1O[C@H](CO)[C@@H](O)[C@H](O)[C@H]1O [GANU, 1-(2-chloroethyl)-1-nitroso-3-β-(D-glucopyranosyl)urea, reference compound]
MTD at 168 h [1]: 12.5 mg/kg/day
Therapeutic index [2]: 32
inhibition in vivo at 0.09 mg/kg/day ([2]; Mus musculus, Ehrlich, ip, 168 h, dose 0.09 mg/kg/day i.p. x 5 days, read-out: Inhibition ratio (%)): 4.2%
inhibition in vivo at 0.19 mg/kg/day ([2]; Mus musculus, Ehrlich, ip, 168 h, dose 0.19 mg/kg/day i.p. x 5 days, read-out: Inhibition ratio (%)): 79.2%
inhibition in vivo at 0.39 mg/kg/day [2, 9]: 100%
inhibition in vivo at 0.78 mg/kg/day [2, 9]: 100%
inhibition in vivo at 3.12 mg/kg/day ([2]; Mus musculus, Ehrlich, ip, 168 h, dose 3.12 mg/kg/day i.p. x 5 days, read-out: Inhibition ratio (%)): 100%
inhibition in vivo at 12.5 mg/kg/day ([2]; Mus musculus, Ehrlich, ip, 168 h, dose 12.5 mg/kg/day i.p. x 5 days, read-out: Inhibition ratio (%)): 100%
minimal effective dose [2, 11]: 0.39 mg/kg/day
Toxic [2, 13]: Toxic (5/5)*
